Read-outs that look alike come from different tables or passages of the source.
How the values were obtained:
[1] = system: HMPV clinical isolate TN/1501/A1; assay: HMPV antiviral assay Method-B (clinical isolate TN/1501/A1 in LLC-MK2 cells, ATP-Lite readout); format: cell-based, Human metapneumovirus (HMPV); settings: hMPV WT1501 (clinical isolate TN/1501/A1), 6 days
How it was run: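 LLC-MK2 cells infected in suspension with TN/1501/A1 at MOI 0.014 in serum-free medium with 2 μg/mL TPCK-trypsin (final), incubated 6 days at 37° C. Compounds tested in duplicate, 10-point 3-fold dilutions from 10 μM. Cell health read by ATP-Lite luminescence, normalised to virus-only and cells-only controls; EC50 by four-parameter logistic fit.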

[2] = system: genotype A, "Long" strain RSV; assay: RSV-A assay (CPE protection in Hep-2 cells, ATPlite readout); format: cell-based, Human respiratory syncytial virus (HRSV); settings: MOI 0.1, CPE protection
How it was run: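 Hep-2 cells (8,000/well) were treated with 2-fold serial compound dilutions in duplicate and infected with RSV at MOI 0.1. After 5 days, protection from cytopathic effect was measured as cell viability by ATPlite luminescence, and EC50 values were derived.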

[3] = human metapneumovirus, LLC-MK2, 144 h
[4] = human respiratory syncytial virus, genotype A “Long” strain RSV, read-out: Human RSV-A (“Long”)
[5] = human respiratory syncytial virus, RSV-A Long strain, read-out: Human RSV-A (“Long”) EC50

| SMILES | EC50 [1, 3] [nM] | EC50 [2, 4] [nM] | EC50 [2, 5] [nM] | EC50 [1] [nM] | EC50 ([2]; RSV-A Long strain, read-out: Human RSV-A (“Long”) EC50) [nM] |
| --- | --- | --- | --- | --- | --- |
| COc1cc(C(=O)NC[C@](O)(c2cc3c(c(-c4ccc(F)c(F)c4F)n2)OC[C@]3(C)C(N)=O)C(F)(F)F)cc2cn(C3(F)CC3)nc12 [Example 522] | < 500 | < 200 | – | – | – |
| COc1cc(C(=O)NC[C@](O)(c2cc3c(c(-c4ccc(F)cc4)n2)OC[C@@]3(CF)C(N)=O)C2CC2)cc2cc(C3CC3)nn12 [Example 1059] | > 500 | – | > 200 | – | – |
| COc1cc(C(=O)NC[C@](O)(c2cc3c(c(-c4ccc(C5CC5)cc4)n2)OC[C@]3(C)C(N)=O)C(F)(F)F)cc2cn(C3CC3)nc12 [Example 891] | > 500 | – | < 200 | – | – |
| C[C@]1(C(N)=O)COc2c1cc([C@@](O)(CNC(=O)c1cc(Cl)c3nn(C(F)F)cc3c1)C1CC1)nc2-c1ccc(F)c(Cl)c1F [Example 570] | < 500 | < 200 | – | – | – |
| COc1cc(C(=O)NC[C@](O)(c2cc3c(c(-c4cc(F)c(F)cc4F)n2)OC[C@]3(C)C(N)=O)C2CC2)cc2cn(C(F)F)nc12 [Example 1146] | < 500 | – | < 200 | – | – |
| Cc1cnc2c(OC(F)F)cc(C(=O)NC[C@](O)(c3cc4c(c(-c5ccc(F)c(Cl)c5F)n3)OC[C@]4(C)C(N)=O)C(F)(F)F)cc2c1 [Example 553] | < 500 | < 200 | – | – | – |
| COc1cc(C(=O)NC[C@](O)(c2cc3c(c(-c4cc(F)c(Cl)cc4F)n2)OC[C@]3(C)C(N)=O)C2CC2)cc2cn(C3(F)CC3)nc12 [Example 1180] | < 500 | – | < 200 | – | – |
| COc1cc(C(=O)NC[C@](O)(c2cc3c(c(-c4ccc(OCC(F)F)cc4)n2)OC[C@]3(C)C(N)=O)C(F)(F)F)cc2cn(C3CC3)nc12 [Example 979] | < 500 | – | < 200 | – | – |
| COc1cc(C(=O)NC[C@](O)(c2cc3c(c(-c4ccc(F)c(C(F)(F)F)c4)n2)OC[C@]3(C)C(N)=O)C2CC2)cc2cn(C3(F)CC3)nc12 [Example 651] | < 500 | < 200 | – | – | – |
| COc1cc(C(=O)NC[C@](O)(c2cc3c(c(-c4ccc(F)cc4)n2)OC[C@]3(C(N)=O)C(F)F)C2CC2)cc2cc(Cl)c(C)nc12 [Example 1030] | > 500 | – | < 200 | – | – |
| C[C@]1(C(N)=O)COc2c1cc([C@@](O)(CNC(=O)c1cc(Cl)c3nn(C4CC4)cc3c1)C1CC1)nc2-c1cc(F)c(F)c(Cl)c1 [Example 790] | < 500 | < 200 | – | – | – |
| COc1cc(C(=O)NCC(O)(c2cc3c(c(-c4ccc5ccn(C(F)F)c5c4)n2)OCC3(C)C(N)=O)C(F)(F)F)cc2cn(C3CC3)nc12 (stereo not drawn) [Example 940] | – | – | – | > 500 | < 200 |
| Cc1cnc2c(OC(F)F)cc(C(=O)NC[C@](O)(c3cc4c(c(-c5ccc6c(c5)OC(F)(F)O6)n3)OC[C@@]4(C(N)=O)C(F)F)C3CC3)cc2c1 [Example 1021] | < 500 | – | < 200 | – | – |
| COc1cc(C(=O)NC[C@](O)(c2cc3c(c(-c4ccc5c(c4)OC(F)(F)C(F)(F)O5)n2)OC[C@]3(C)C(N)=O)C(F)(F)F)cc2cn(C3CC3)nc12 [Example 1218] | > 500 | – | < 200 | – | – |
| COc1cc(C(=O)NC[C@](O)(c2cc3c(c(-c4cc5c(cc4Cl)OC(F)(F)O5)n2)OC[C@]3(C)C(N)=O)C2CC2)cc2cn(C3CC3)nc12 [Example 1231] | < 500 | – | < 200 | – | – |
| COc1cc(C(=O)NC[C@](O)(c2cc3c(c(-c4ccc(F)c(F)c4Cl)n2)OC[C@]3(C)C(N)=O)C2CC2)cc2cn(C3(F)CC3)nc12 [Example 562] | < 500 | < 200 | – | – | – |
| COc1cc(C(=O)NC[C@](O)(c2cc3c(c(-c4ccc(C#N)c(Cl)c4)n2)OC[C@]3(C)C(N)=O)C(F)(F)F)cc2cc(Cl)c(C)nc12 [Example 578] | > 500 | < 200 | – | – | – |
| Cc1cnc2c(Cl)cc(C(=O)NC[C@](O)(c3cc4c(c(-c5cc(F)c(F)c(Cl)c5)n3)OC[C@]4(C)C(N)=O)C3CC3)cc2c1 [Example 792] | < 500 | < 200 | – | – | – |
